Measurements from the supplement of paper PMC10307832.

How the values were obtained:
Experiment in all cases: relative viability (nuclei count vs DMSO), 5 days (fraction); higher = more cells survive
NCI-H1975 = system: NCI-H1975
Procedure, shortened: (§1)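 For relative viability, nuclei counts in treated wells were divided by those in vehicle wells. Lung cancer cell lines had been pin-tool dosed in 1536-well plates the day after seeding and cultured for 5 days, then fixed and stained in one step (final 0.05% Triton X-100, 1% formaldehyde, 1 ug/ml Hoechst) and imaged at 4×. Doses were one drug alone or a fixed anchor-drug dose plus five library-drug doses (not always all listed) in √10 steps, and values are duplicate-plate medians.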

COR-L 105 = system: COR-L 105
Procedure, shortened: as §1

NCI-H1993 = system: NCI-H1993
Procedure, shortened: as §1

NCI-H1944 = system: NCI-H1944
Procedure, shortened: as §1

HCC-78 = system: HCC-78
Procedure, shortened: as §1

SK-LU-1 = system: SK-LU-1
Procedure, shortened: as §1

NCI-H1734 = system: NCI-H1734
Procedure, shortened: as §1

LU99A = system: LU99A
Procedure, shortened: as §1

NCI-H596 = system: NCI-H596
Procedure, shortened: as §1

NCI-H1650 = system: NCI-H1650
Procedure, shortened: as §1

HCC-366 = system: HCC-366
Procedure, shortened: as §1

LC-2-ad = system: LC-2-ad
Procedure, shortened: as §1

EKVX = system: EKVX
Procedure, shortened: as §1

201T = system: 201T
Procedure, shortened: as §1

BEN = system: BEN
Procedure, shortened: as §1

NCI-H3122 = system: NCI-H3122
Procedure, shortened: as §1

HCC-15 = system: HCC-15
Procedure, shortened: as §1

COR-L23 = system: COR-L23
Procedure, shortened: as §1

HCC-827 = system: HCC-827
Procedure, shortened: as §1

NCI-H1755 = system: NCI-H1755
Procedure, shortened: as §1

HARA = system: HARA
Procedure, shortened: as §1

LXF-289 = system: LXF-289
Procedure, shortened: as §1

RERF-LC-KJ = system: RERF-LC-KJ
Procedure, shortened: as §1

O=c1[nH]c2ccccc2n1C1CCN(CCCC(c2ccc(F)cc2)c2ccc(F)cc2)CC1 [Pimozide] + CS(=O)(=O)CCNCc1ccc(-c2ccc3ncnc(Nc4ccc(OCc5cccc(F)c5)c(Cl)c4)c3c2)o1 [Lapatinib] (partner 2 µM)
relative viability (NCI-H1975; first compound 0.08 µM): 0.928
relative viability (NCI-H1975; first compound 0.253 µM): 0.848
relative viability (NCI-H1975; first compound 0.8 µM): 0.945
relative viability (NCI-H1975; first compound 2.53 µM): 0.897
relative viability (NCI-H1975; first compound 8 µM): 0.751
relative viability (COR-L 105; first compound 0.253 µM): 0.395
relative viability (COR-L 105; first compound 0.8 µM): 0.377
relative viability (COR-L 105; first compound 2.53 µM): 0.396
relative viability (COR-L 105; first compound 8 µM): 0.351
relative viability (NCI-H1993; first compound 0.08 µM): 0.894
relative viability (NCI-H1993; first compound 0.253 µM): 0.714
relative viability (NCI-H1993; first compound 0.8 µM): 0.697
relative viability (NCI-H1993; first compound 2.53 µM): 0.788
relative viability (NCI-H1993; first compound 8 µM): 0.901
relative viability (NCI-H1944; first compound 0.08 µM): 0.802
relative viability (NCI-H1944; first compound 0.253 µM): 0.76
relative viability (NCI-H1944; first compound 0.8 µM): 0.62
relative viability (NCI-H1944; first compound 2.53 µM): 0.772
relative viability (NCI-H1944; first compound 8 µM): 0.794
relative viability (HCC-78; first compound 0.08 µM): 0.484
relative viability (HCC-78; first compound 0.253 µM): 0.831
relative viability (HCC-78; first compound 0.8 µM): 0.54
relative viability (HCC-78; first compound 2.53 µM): 0.608
relative viability (HCC-78; first compound 8 µM): 0.889
relative viability (SK-LU-1; first compound 0.08 µM): 0.773
relative viability (SK-LU-1; first compound 0.253 µM): 0.846
relative viability (SK-LU-1; first compound 0.8 µM): 0.859
relative viability (SK-LU-1; first compound 2.53 µM): 0.826
relative viability (SK-LU-1; first compound 8 µM): 0.731
relative viability (NCI-H1734; first compound 0.08 µM): 1.04
relative viability (NCI-H1734; first compound 0.253 µM): 1.07
relative viability (NCI-H1734; first compound 0.8 µM): 0.978
relative viability (NCI-H1734; first compound 2.53 µM): 0.96
relative viability (NCI-H1734; first compound 8 µM): 0.671
relative viability (LU99A; first compound 0.08 µM): 0.969
relative viability (LU99A; first compound 0.253 µM): 0.982
relative viability (LU99A; first compound 0.8 µM): 0.757
relative viability (LU99A; first compound 2.53 µM): 1.03
relative viability (LU99A; first compound 8 µM): 0.888
relative viability (NCI-H596; first compound 0.08 µM): 1
relative viability (NCI-H596; first compound 0.253 µM): 1.15
relative viability (NCI-H596; first compound 0.8 µM): 1.16
relative viability (NCI-H596; first compound 2.53 µM): 1.01
relative viability (NCI-H596; first compound 8 µM): 0.87
relative viability (NCI-H1650; first compound 0.08 µM): 0.711
relative viability (NCI-H1650; first compound 0.253 µM): 0.809
relative viability (NCI-H1650; first compound 0.8 µM): 0.451
relative viability (NCI-H1650; first compound 2.53 µM): 0.733
relative viability (NCI-H1650; first compound 8 µM): 0.146
relative viability (HCC-366; first compound 0.08 µM): 0.971
relative viability (HCC-366; first compound 0.253 µM): 1.02
relative viability (HCC-366; first compound 0.8 µM): 0.988
relative viability (HCC-366; first compound 2.53 µM): 1.01
relative viability (HCC-366; first compound 8 µM): 1.06
relative viability (LC-2-ad; first compound 0.08 µM): 0.943
relative viability (LC-2-ad; first compound 0.253 µM): 0.918
relative viability (LC-2-ad; first compound 0.8 µM): 0.918
relative viability (LC-2-ad; first compound 2.53 µM): 0.949
relative viability (LC-2-ad; first compound 8 µM): 0.6
relative viability (EKVX; first compound 0.253 µM): 0.177
relative viability (EKVX; first compound 0.8 µM): 0.221
relative viability (EKVX; first compound 2.53 µM): 0.216
relative viability (EKVX; first compound 8 µM): 0.464
relative viability (201T; first compound 0.08 µM): 1.01
relative viability (201T; first compound 0.253 µM): 1.05
relative viability (201T; first compound 0.8 µM): 1.01
relative viability (201T; first compound 2.53 µM): 0.995
relative viability (201T; first compound 8 µM): 0.926
relative viability (BEN; first compound 0.08 µM): 0.615
relative viability (BEN; first compound 0.253 µM): 0.854
relative viability (BEN; first compound 0.8 µM): 0.73
relative viability (BEN; first compound 2.53 µM): 0.669
relative viability (BEN; first compound 8 µM): 0.728
relative viability (NCI-H3122; first compound 0.08 µM): 1
relative viability (NCI-H3122; first compound 0.253 µM): 1
relative viability (NCI-H3122; first compound 0.8 µM): 0.813
relative viability (NCI-H3122; first compound 2.53 µM): 1
relative viability (NCI-H3122; first compound 8 µM): 1.01
relative viability (HCC-15; first compound 0.08 µM): 0.857
relative viability (HCC-15; first compound 0.253 µM): 0.889
relative viability (HCC-15; first compound 0.8 µM): 0.701
relative viability (HCC-15; first compound 2.53 µM): 0.791
relative viability (HCC-15; first compound 8 µM): 0.777
relative viability (COR-L23; first compound 0.08 µM): 0.99
relative viability (COR-L23; first compound 0.253 µM): 0.856
relative viability (COR-L23; first compound 0.8 µM): 0.881
relative viability (COR-L23; first compound 2.53 µM): 0.914
relative viability (COR-L23; first compound 8 µM): 0.862
relative viability (HCC-827; first compound 0.253 µM): 0.205
relative viability (HCC-827; first compound 0.8 µM): 0.189
relative viability (HCC-827; first compound 2.53 µM): 0.179
relative viability (HCC-827; first compound 8 µM): 0.194
relative viability (NCI-H1755; first compound 0.08 µM): 1.01
relative viability (NCI-H1755; first compound 0.253 µM): 1.01
relative viability (NCI-H1755; first compound 0.8 µM): 0.951
relative viability (NCI-H1755; first compound 2.53 µM): 1.03
relative viability (NCI-H1755; first compound 8 µM): 0.849
relative viability (HARA; first compound 0.08 µM): 0.765
relative viability (HARA; first compound 0.253 µM): 0.963
relative viability (HARA; first compound 0.8 µM): 0.755
relative viability (HARA; first compound 2.53 µM): 0.776
relative viability (HARA; first compound 8 µM): 0.561
relative viability (LXF-289; first compound 0.08 µM): 0.863
relative viability (LXF-289; first compound 0.253 µM): 0.937
relative viability (LXF-289; first compound 0.8 µM): 0.882
relative viability (LXF-289; first compound 2.53 µM): 0.87
relative viability (LXF-289; first compound 8 µM): 0.829
relative viability (RERF-LC-KJ; first compound 0.08 µM): 0.885
relative viability (RERF-LC-KJ; first compound 0.253 µM): 0.801
relative viability (RERF-LC-KJ; first compound 0.8 µM): 0.776
relative viability (RERF-LC-KJ; first compound 2.53 µM): 0.784
relative viability (RERF-LC-KJ; first compound 8 µM): 0.742
